Measurements reported in patent publication US20130172294A1, “Treatment with VB-201” (Vascular Biogenics Ltd., priority 2010, published 2013).
Entries after “also recorded” stand apart in the source; their conditions may differ. Like-named read-outs stand apart in the source and are kept apart here.

Tests used:
[1] = Safety and tolerability of repeated doses 40 and 80 mg (Example 4); type: in vivo, human
Source text: Safety and tolerability of VB-201 was judged by evaluating the incidence of abnormal findings in the following measurements: vital signs: systolic and diastolic blood pressure, heart rate, respiratory rate, body temperature; physical examination; 12-lead electrocardiogram; laboratory tests of blood samples for: complete blood count, prothrombin time/partial thromboplastin time, LDL- and HDL-cholesterol, total cholesterol, triglycerides, glucose, blood urea nitrogen, sodium, potassium, creatinine, calcium, phosphorus, creatinine phosphokinase, lactate dehydrogenase, aspartate transaminase, alanine transaminase, γ-glutamyl transferase, alkaline phosphatase, protein, albumin, total bilirubin, total IgM and IgG antibodies, interleukin-12/23 p40, tumor necrosis factor-α, and interleukin-6, as well as routine urinalysis; and all adverse events, whether or not considered serious, and whether or not considered related to the investigational agent, according to the criteria for Good Clinical Practice. Treatment-emergent adverse events were defined as any adverse event that started on or after administration of the first dose of VB-201, and no more than 30 days after administration of the last dose, or are ongoing at the time of the first dose and worsened in severity or frequency during treatment. […] The subjects were all healthy volunteers. […] 6 subjects received a placebo. […]

[2] = Repeated daily dose pharmacokinetics of VB-201 in plasma, 14 days (Example 2); type: in vivo, human; settings: for T1/2 (rec. ph.): recovery phase after Day 14
Method: Determination of VB-201 concentrations in plasma was performed using an HPLC-MS/MS (high performance liquid chromatography with tandem mass spectrometric detection) assay. Calibration was for a range of from 5 to 500 ng/ml for low doses and from 50 to 5000 ng/ml for high doses. Pharmacokinetic parameters were estimated by using a non-compartmental method, except for the AUC (area under curve), which was determined using a (log-) trapezoidal rule as the area above the previous trough level. […] The subjects were all healthy volunteers. […] 10 subjects received a placebo. The VB-201 was formulated in gelatin capsules enterocoated with Opadry AMB and Acryleze White. The 20 mg dose was originally in the form of 20 mg capsules. […] Pharmacokinetic blood samples for VB-201 determination were collected on Day 0 and Day 14, prior to dosing and 2, 4, 6, 8, 10, 12, 16 and 24 hours after dosing. […] Pharmacokinetic samples were also collected on Day 12 and Day 13, before dosing. Concentration-time curves were constructed for a time period of 24 hours on each of days 1 and 14. In addition, urine samples from the subjects receiving 30 mg VB-201 were assayed for VB-201 by high performance liquid chromatography-tandem mass spectrometry. […] The limit of detection was 1 ng/ml.

interferon-γ (IFN-γ) = test system: interferon-γ (IFN-γ)
Method: Plasma levels of interleukin-23 (IL-23) and interferon-γ (IFN-γ) were determined using the FlowCytomix human simplex kits (Bender Medsystems) for the aforementioned cytokines according to the manufacturer instructions. Acquisition of samples was performed using FacsCalibur (Becton Dickinson). Results were analyzed with the FlowCytomix Pro 2.2 Software.
Healthy subjects were treated once a day with 40 mg or 80 mg of VB-201, according to the procedures described in Example 4. Plasma was collected on day 0 (pre-dosing), on day 14 after dosing, and on day 28 after dosing (when administration lasted 28 days). Plasma levels of interleukin-23 (IL-23) and interferon-γ (IFN-γ) were determined as described hereinabove.

## CCCCCCCCCCCCCCCCOCC(COP(=O)([O-])OCC[N+](C)(C)C)OCCCCC(=O)O (stereo not drawn) [VB-201, 1-hexadecyl-2-(4′-carboxybutyl)-glycerol-3-phosphocholine]
[1]; daily 40 or 80 mg, 14 or 28 day cohorts
  serious adverse events: No serious adverse events were reported
[1]; daily doses of up to 80 mg for up to 28 days
  safety and tolerability: both safe and well-tolerated; also recorded: well-tolerated by subjects, and no substantial toxicity was observed
[2]; continued once per day dosing
  multi-day accumulation relative to a single dose, estimated from elimination data: approximately 4 times
[2]; daily 5 mg, Day 1
  AUC(0-24): 1731 ng·h/mL
  AUC(0-infinity): 6005 ng·h/mL
  AUMC (0-24): 23670 hours^2*ng/ml
  AUMC (0-infinity): 341432 hours^2*ng/ml
  Cl/F (0-24): 3.92 L/h
  Cmax: 117.34 ng/mL
  Kc: 0.0250 h⁻¹
  MTT: 14.51 h
  T1/2: 32.18 h
  Tmax: 10 h
[2]; daily 5 mg, Day 14
  AUC(0-24): 6238 ng·h/mL
  AUC(0-infinity): 15913 ng·h/mL
  AUMC (0-24): 71173 hours^2*ng/ml
  AUMC (0-infinity): 821875 hours^2*ng/ml
  Accum. (accumulation): 4.75
  Cl/F (0-24): 0.90 L/h
  Cmax: 340.31 ng/mL
  Kc: 0.0278 h⁻¹
  MTT: 11.41 h
  T1/2: 30.95 h
  Tmax: 9.67 h
[2]; daily 5 mg
  T1/2 (rec. ph.): 44.17 h
[2]; daily 10 mg, Day 1
  AUC(0-24): 3494 ng·h/mL
  AUC(0-infinity): 9912 ng·h/mL
  AUMC (0-24): 45924 hours^2*ng/ml
  AUMC (0-infinity): 440602 hours^2*ng/ml
  Cl/F (0-24): 4.92 L/h
  Cmax: 227.92 ng/mL
  Kc: 0.0285 h⁻¹
  MTT: 14.44 h
  T1/2: 27.09 h
  Tmax: 11.33 h
[2]; daily 10 mg, Day 14
  AUC(0-24): 12617 ng·h/mL
  AUC(0-infinity): 36183 ng·h/mL
  AUMC (0-24): 148375 hours^2*ng/ml
  AUMC (0-infinity): 2596242 hours^2*ng/ml
  Accum. (accumulation): 5.06
  Cl/F (0-24): 0.87 L/h
  Cmax: 665.80 ng/mL
  Kc: 0.0267 h⁻¹
  MTT: 11.72 h
  T1/2: 34.27 h
  Tmax: 11 h
[2]; daily 10 mg
  T1/2 (rec. ph.): 35.77 h
[2]; daily 20 mg, Day 1
  AUC(0-24): 4186 ng·h/mL
  AUC(0-infinity): 12721 ng·h/mL
  AUMC (0-24): 58323 hours^2*ng/ml
  AUMC (0-infinity): 752013 hours^2*ng/ml
  Cl/F (0-24): 5.21 L/h
  Cmax: 294.23 ng/mL
  Kc: 0.0307 h⁻¹
  MTT: 14.04 h
  T1/2: 30.91 h
  Tmax: 12.33 h
[2]; daily 20 mg, Day 14
  AUC(0-24): 20553 ng·h/mL
  AUC(0-infinity): 47828 ng·h/mL
  AUMC (0-24): 229287 hours^2*ng/ml
  AUMC (0-infinity): 2070644 hours^2*ng/ml
  Accum. (accumulation): 4.90
  Cl/F (0-24): 1.46 L/h
  Cmax: 1275.65 ng/mL
  Kc: 0.0338 h⁻¹
  MTT: 11.16 h
  T1/2: 25.09 h
  Tmax: 7.33 h
[2]; daily 20 mg
  T1/2 (rec. ph.): 30.89 h
[2]; daily 30 mg, Day 1
  AUC(0-24): 6409 ng·h/mL
  AUC(0-infinity): 67386 ng·h/mL
  AUMC (0-24): 92749 hours^2*ng/ml
  AUMC (0-infinity): 11648110 hours^2*ng/ml
  Cl/F (0-24): 8.55 L/h
  Cmax: 416.58 ng/mL
  Kc: 0.0220 h⁻¹
  MTT: 14.73 h
  T1/2: 72.30 h
  Tmax: 19 h
[2]; daily 30 mg, Day 14
  AUC(0-24): 30555 ng·h/mL
  AUC(0-infinity): 64120 ng·h/mL
  AUMC (0-24): 358861 hours^2*ng/ml
  AUMC (0-infinity): 2456341 hours^2*ng/ml
  Accum. (accumulation): 7.07
  Cl/F (0-24): 1.09 L/h
  Cmax: 1821.40 ng/mL
  Kc: 0.0333 h⁻¹
  MTT: 11.78 h
  T1/2: 23.64 h
  Tmax: 10 h
[2]; daily 30 mg
  T1/2 (rec. ph.): 32.78 h
[2]; daily 30 mg, HPLC-MS/MS, limit of detection 1 ng/ml
  VB-201 in urine samples: No traces of VB-201 could be detected
[2]; daily 5-30 mg
  induction or inhibition of metabolism: does not show significant induction or inhibition of metabolism
[2]; daily 5-30 mg, Day 14
  average accumulation rate: approximately 5
interferon-γ (IFN-γ); 40 mg per day, 14 days, one subject (second had no detectable levels)
  IFN-γ plasma levels: considerably reduced
interferon-γ (IFN-γ); 80 mg per day, 28 days, two subjects (third had no detectable levels)
  IFN-γ plasma levels: considerably reduced
